The text below walks through data of patent US20240043392A1, “NOVEL BIPHENYL DERIVATIVE AND PREPARATION METHOD AND PHARMACEUTICAL USE THEREOF” (XI'AN XINTON PHARMACEUTCAL RESEARCH CO., LTD., priority 2021, published 2024).

One data set has as its target hPD-1/hPD-L1 interaction (Homo sapiens (Human), UniProt Q9NZQ7). The note with it: read-out: PD-1/PD-L1 IC50.
Another data set concerns the target Fc-hPD-L1 protein (Homo sapiens (Human), UniProt Q9NZQ7). In kind it is binding.
Data set [1] has as its system C57BL/6 mice. Description: Acute toxicity test, intraperitoneal injection. The note with it: 125 mg/kg.
The test system of data set [2] is C57BL/6 mice. The note with it: mouse, in vivo.
Data set [3] deals with MC38-hPDL1 colon cancer cells. Also noted: species or system mice. To be noted: mouse, in vivo.

Like-named read-outs stand apart in the source and are kept apart here.

Chain of hPD-1/hPD-L1 interaction (Q9NZQ7 19-238): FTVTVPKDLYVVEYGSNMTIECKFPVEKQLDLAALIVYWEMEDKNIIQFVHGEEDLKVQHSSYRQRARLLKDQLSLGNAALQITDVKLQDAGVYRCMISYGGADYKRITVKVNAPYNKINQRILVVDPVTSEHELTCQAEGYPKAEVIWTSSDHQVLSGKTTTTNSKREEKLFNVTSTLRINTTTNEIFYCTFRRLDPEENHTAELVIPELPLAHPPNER
Chain of Fc-hPD-L1 protein (Q9NZQ7 19-238 limits assumed): as the sequence (Q9NZQ7 19-238) above

Consider “(4-((3′-(3-(4-(((1-carboxy-2-hydroxyethyl)amino)methyl)-1H-1,2,3-triazol-1-)propoxy)-2,2′-d imethyl-[1,1′-biphenyl]-3-yl)methoxy)-5-chloro-2-methoxybenzyl)serine [II-7]”, for which the IC50 at hPD-1/hPD-L1 interaction is 0.1 to 10 nM. Also, the equilibrium dissociation constant (Kd) at Fc-hPD-L1 protein was 0.1 to 100 nM.

For the compound `COc1cc(OCc2cccc(-c3cccc(OCCCn4cc(CN5CCCC5C(N)=O)nn4)c3C)c2C)c(Cl)cc1CN1CCCC1C(N)=O` (stereo not drawn) [II-8, 1-(4-((3′-(3-(4-((2-carbamoylpyrrolidin-1-)methyl)-1H-1,2,3-triazol-1-) Propoxy)-2,2′-dimethyl-[1,1′-biphenyl]-3-)methoxy)-5-chloro-2-methoxybenzyl)pyrrolidine-2-formamide], on hPD-1/hPD-L1 interaction, the IC50 lay in the range of 10 to 100 nM. On Fc-hPD-L1 protein, this compound returned an equilibrium dissociation constant (Kd) of 0.1 to 100 nM.

Take `COc1cc(OCc2cccc(-c3cccc(OCCCn4cc(CNCCO)nn4)c3C)c2C)c(Cl)cc1CNCCO` [II-9]: the IC50 at hPD-1/hPD-L1 interaction lay within 0.1 to 10 nM. On Fc-hPD-L1 protein, this compound had a Kd of 0.1 to 100 nM.

For the compound `COC(=O)[C@@H](CO)NCc1cn(CCCOc2cccc(-c3cccc(COc4cc(OCc5cncc(C#N)c5)c(CN[C@H](CO)C(=O)OC)cc4Cl)c3C)c2C)nn1` [II-19, (5-chloro-2-((5-cyanopyridin-3-)methoxy)-4-((3′-(3-(4-((((R)-1-methoxy-3-hydroxy-1-oxopropan-2-)amino)methyl)-1H-1,2,3-triazol-1-)propoxy)-2,2′-dimethyl-[1,1′-biphenyl]-3-)methoxy)benzyl)-D-serine methyl ester], the IC50 at hPD-1/hPD-L1 interaction fell in the range of 10 to 100 nM. The same compound gave an equilibrium dissociation constant (Kd) on Fc-hPD-L1 protein of 100 to 1000 nM.

For the compound “(4-((3′-(3-(4-(((carboxymethyl)amino)methyl)-1H-1,2,3-triazol-1-)propoxy)-2,2′-dimethyl-[1,1′-biphenyl]-3-)methoxy)-5-chloro-2-((5-cyanopyridin-3-)methoxy)benzyl) glycine [II-5]”, the IC50 at hPD-1/hPD-L1 interaction fell in the range of 0.1 to 10 nM. In addition, the Kd at Fc-hPD-L1 protein is 0.1 to 100 nM.

For the compound `COc1nc(OCc2cccc(-c3ccccc3)c2C)ccc1CNCCNC(C)=O` [BMS-202], in the data set with C57BL/6 mice [1], the body weight result is “decreased significantly”; the “state of mice (clinical signs)” value is “obvious signs of convulsions and tremors”.

As to “1-(4-((3′-(3-(4-((2-carbamoylpyrrolidin-1-)methyl)-1H-1,2,3-triazol-1-) Propoxy)-2,2′-dimethyl-[1,1′-biphenyl]-3-methoxy)-5-chloro-2-((5-cyanopyridine-3-)methox y)benzyl) pyrrolidine-2-carboxamide [II-4]”, the IC50 on hPD-1/hPD-L1 interaction fell in the range of 10 to 100 nM.

As to `Cc1c(COc2cc(OCc3cncc(C#N)c3)c(CN[C@@H](CO)C(=O)O)cc2Cl)cccc1-c1cccc(OCCCn2cc(CNC(CO)C(=O)O)nn2)c1C` (stereo partly drawn) [II-1, (4-((3′-(3-(4-(((1-carboxy-2-hydroxyethyl)amino)methyl)-1H-1,2,3-triazole-1-)propaneoxy)-2,2′-dimethyl-[1,1′-biphenyl]-3-)methoxy)-5-chloro-2-((5-cyanopyridin-3-)methoxy)benzyl)serine], the body weight result with C57BL/6 mice [2] was “nor did their body weight decrease”. For the same compound, the IC50 at hPD-1/hPD-L1 interaction was in the range of 0.1 to 10 nM. In addition, in data set [3], the “inhibitory effect on tumor growth” value was “weak inhibitory effect on tumor growth”, the “proliferation of CD3+CD4+T cell” value is “can promote the proliferation”, the “proliferation of CD3+CD8+T cell” value was “can promote the proliferation” and the “relative tumor inhibition rate” value worked out at 45.8%. The tumor weight entry in data set [3] is on record as “excellent anti-tumor effect”. Further, the Kd on Fc-hPD-L1 protein is 0.1 to 100 nM.

Consider “(4-((3′-(3-(4-(((carboxymethyl)amino)methyl)-1H-1,2,3-triazol-1-)propoxy)-2, 2′-dichloro-[1,1′-biphenyl]-3-)methoxy)-5-chloro-2-((5-cyanopyridin-3-)methoxy)benzyl) glycine [II-17]”, for which the IC50 at hPD-1/hPD-L1 interaction is 100 to 1000 nM.

On to `CCOC(=O)CNCc1cn(CCCOc2cccc(-c3cccc(COc4cc(OCc5cncc(C#N)c5)c(CNCC(=O)OCC)cc4Cl)c3C)c2C)nn1` [II-20, (5-chloro-2-((5-cyanopyridin-3-yl)methoxy)-4-((3′-(3-(4-(((2-ethoxy-2-oxoethyl)amino)methyl)-1H-1,2,3-triazol-1-)propoxy)-2,2′-dimethyl-[1,1′-biphenyl]-3-)methoxy)benzyl)glycine ethyl ester], for which the IC50 at hPD-1/hPD-L1 interaction fell in the range of 10 to 100 nM. In addition, on Fc-hPD-L1 protein, the Kd lay within 100 to 1000 nM.

“(4-((3′-(2-(4-(((1-carboxy-2-hydroxyethyl)amino)methyl)-1H-1,2,3-triazol-1-)ethyl oxy)-2,2′-dimethyl-[1,1′-biphenyl]-3-)methoxy)-5-chloro-2-((5-cyanopyridin-3-)methoxy)ben zyl)serine [II-6]”: the IC50 at hPD-1/hPD-L1 interaction is 100 to 1000 nM.

Consider `COc1cc(OCc2cccc(-c3cccc(OCCCn4cc(CNC(C)C(=O)O)nn4)c3C)c2C)c(Cl)cc1CN[C@@H](C)C(=O)O` (stereo partly drawn) [II-15, (4-((3′-(3-(4-(((1-carboxyethyl)amino)methyl)-1H-1,2,3-triazol-1-yl)propoxy)-2 ,2′-dimethyl-[1,1′-biphenyl]-3-)methoxy)-5-chloro-2-methoxybenzyl)alanine], for which the IC50 on hPD-1/hPD-L1 interaction is 0.1 to 10 nM.

On to `COc1cc(OCc2cccc(-c3cccc(OCCCn4cc(CNCCC(=O)O)nn4)c3C)c2C)c(Cl)cc1CNCCC(=O)O` [II-12, 3-((4-((3′-(3-(4-(((2-carboxyethyl)amino)methyl)-1H-1,2,3-triazol-1-)propoxyl)-2,2′-dimethyl-[1,1′-biphenyl]-3-)methoxy)-5-chloro-2-methoxybenzyl)amino)propionic acid], for which, on hPD-1/hPD-L1 interaction, the IC50 was in the range of 0.1 to 10 nM. The same compound showed a Kd at Fc-hPD-L1 protein of 0.1 to 100 nM.

On to `COc1cc(OCc2cccc(-c3cccc(OCCCn4cc(CN5CCCCC5C(=O)O)nn4)c3C)c2C)c(Cl)cc1CN1CCCCC1C(=O)O` (stereo not drawn) [II-13], for which, on hPD-1/hPD-L1 interaction, the IC50 was 0.1 to 10 nM.

Consider `COc1cc(OCc2cccc(-c3cccc(OCCCn4cc(CN5CC[C@@H](O)C5)nn4)c3C)c2C)c(Cl)cc1CN1CC[C@@H](O)C1` [II-11, (R)-1-((1-(3-((3′-((2-chloro-4-(((R)-3-hydroxypyrrolidin-1-yl)methyl)-5-methoxyphenoxy)methyl)-2,2′-dimethyl-[1,1′-biphenyl]-3-)oxy)propyl)-1H-1,2,3-triazol-4-)methyl)py rrolidin-3-ol], for which, at hPD-1/hPD-L1 interaction, the IC50 is 10 to 100 nM. For the same compound, the dissociation constant Kd at Fc-hPD-L1 protein was in the range of 0.1 to 100 nM.

For `COc1cc(OCc2cccc(-c3cccc(OCCCn4cc(CNCCNC(C)=O)nn4)c3C)c2C)c(Cl)cc1CNCCNC(C)=O` [II-10, N-(2-((4-((3′-(3-(4-(((2-acetylaminoethyl)amino)methyl)-1H-1,2,3-triazole-1-)propoxy)-2,2′-dimethyl-[1,1′-biphenyl]-3-)methoxy)-5-chloro-2-methoxybenzyl)amino)ethyl)acetamide], the IC50 on hPD-1/hPD-L1 interaction fell in the range of 10 to 100 nM.

Regarding “5-((4-chloro-2-(((2-hydroxyethyl)amino)methyl)-5-((3′-(3-(4-(((2-hydroxyethyl)amino)methy 1 Base)-1H-1,2,3-triazol-1-)propoxy)-2,2′-dimethyl-[1,1′-biphenyl]-3-)methoxy) phenoxy) methyl)nicotinonitrile [II-2]”, the IC50 at hPD-1/hPD-L1 interaction was in the range of 10 to 100 nM.

With `CCOC(=O)[C@@H](CO)NCc1cn(CCCOc2cccc(-c3cccc(COc4cc(OC)c(CN[C@H](CO)C(=O)OCC)cc4Cl)c3C)c2C)nn1` [II-21, ((1-(3-((3′-((2-chloro-4-((((R)1-ethoxy-3-hydroxy-1-oxopropan-2-)amino)methyl)-5-methoxyphenoxy)methyl)-2,2′-dimethyl-[1,1′-biphenyl]-3-)oxy)propyl)-1H-1,2,3-triazol-4-)methyl)-D-serine ethyl ester], the IC50 on hPD-1/hPD-L1 interaction is 10 to 100 nM. The compound further came in with a dissociation constant (Kd) at Fc-hPD-L1 protein of 100 to 1000 nM.

As for “(4-((3′-(3-(4-(((1-carboxy-2-hydroxyethyl)amino)methyl)-1H-1,2,3-triazol-1-)propoxyl)-2,2′-dichloro-[1,1′-biphenyl]-3-)methoxy)-5-chloro-2-((5-cyanopyridin-3-)methoxy)benzyl)serine [II-16]”, the IC50 on hPD-1/hPD-L1 interaction lay in the range of 10 to 100 nM.

On to `CCOC(=O)[C@@H](CO)NCc1cn(CCCOc2cccc(-c3cccc(COc4cc(OCc5cncc(C#N)c5)c(CN[C@H](CO)C(=O)OCC)cc4Cl)c3C)c2C)nn1` [II-18, (5-chloro-2-((5-cyanopyridin-3-)methoxy)-4-((3′-(3-(4-((((R)-1-ethoxy-3-hydroxy-1-oxopropan-2-)amino)methyl)-1H-1,2,3-triazol-1-)propoxy)-2,2′-dimethyl-[1,1′-biphenyl]-3-)methoxy)benzyl)-D-serine ethyl ester], for which the body weight result in the data set with C57BL/6 mice [2] is listed as “nor did their body weight decrease”. Also, the IC50 at hPD-1/hPD-L1 interaction fell in the range of 10 to 100 nM. Moreover, in data set [3], the “proliferation of CD3+CD4+T cell” value was “can promote the proliferation”, the “proliferation of CD3+CD8+T cell” value is “can promote the proliferation”, the “relative tumor inhibition rate” value was found to be 49.6% and the tumor weight result was “excellent anti-tumor effect”. This compound yielded a Kd at Fc-hPD-L1 protein of 100 to 1000 nM.

For “N-(2-((4-((3′-(3-(4-(((2-acetylaminoethyl)amino) methyl)-1H-1,2,3-triazole-1-)propoxy)-2,2′-dimethyl-[1,1′-biphenyl]-3-)methoxy)-5-chloro-2-((5-cyanopyridine-3-)methoxy) benzyl)amino)ethyl)acetamide [II-3]”, the IC50 at hPD-1/hPD-L1 interaction is 10 to 100 nM. Besides, the Kd at Fc-hPD-L1 protein fell in the range of 0.1 to 100 nM.
